From US12668573B2, “Linker, antibody-drug conjugate including same and use thereof” (Zhejiang Yangshengtang Institute of Natural Medication Co., …, priority 2018, dated 2026)
Square brackets hold non-standard residues; d marks the D form. Peptide text beside a SMILES is read from it. * marks the point of attachment. Dolaproine = CO[C@@H]([C@@H]1CCCN1)[C@@H](C)C(=O)O; Dil = CC[C@H](C)[C@H](NC)[C@@H](CC(=O)O)OC; X1 = C[C@@H](N*)[C@@H](O)c1ccccc1; NMeV = CN[C@H](C(=O)O)C(C)C

What was measured:
[1] = Stability of small molecule-linker conjugates in presence of excess free sulfhydryl (Cys), RP-HPLC; type: physicochemical; conditions: PBS with Cys 0.41 mg/mL, pH=7.4, 37° C., 7 days; peak area at t=0 defined as 100%
Experimental: In this example, the small molecule conjugates containing methyl maleate linker (Conjugate-1, Conjugate-2 and Conjugate-3, prepared in Example 9) and small molecule conjugates containing succinimide linker (Conjugate-1′, Conjugate-2′ and Conjugate-3′, prepared in Example 9) were evaluated to determine their stability situations in the presence of excess free sulfhydryl (Cys), in which the monitoring indicators were the changes of the remaining amounts of the small molecule conjugates containing two different linkers in the solution over time. The substances to be tested were each dissolved in DMSO, diluted with 10 times volume of PBS buffer containing cysteine (in which the concentration of Cys was 0.41 mg/mL, pH=7.4) and incubated in a 37° C. incubator; at t=0, another 200 μL of each sample was taken and stored at −80° C. as control. After each solution was incubated for 7 days, samples were taken separately, and RP-HPLC was used to detect the changes of their remaining amounts of substrate over time, in which the peak area of substrate at t=0 was defined as 100%.

BT-474 = experiment: In vitro cytotoxicity test (CellTiter Glo, 96 h); type: cell-based, human; conditions: BT-474, HER2-positive breast cancer; ADC DAR about 4
Experimental: (§1) The selected cell lines included antigen HER2-positive breast cancer cell lines BT-474 and HCC1954, antigen HER2-positive ovarian cancer cell line SK-OV-3, antigen HER2-positive gastric cancer cell line NCI-N87, and antigen HER2-weakly positive breast cancer cell line MCF-7, and antigen HER2-negative breast cancer cell line MDA-MB-468 (purchased from ATCC).
a) Vial was gently shaken in a 37° C. water bath to be thawed; b) after all the contents had been thawed, the vial was taken out from the water bath, and disinfected by immersion in or spraying with 70% ethanol; c) the contents of the vial was transferred into a centrifuge tube containing 9 mL of complete medium (DMEM medium was used for cell lines BT-474 and MCF-7; RPMI1640 medium was used for cell lines NCI-N87, HCC1954 and MDA-MB-468; and Mccoy's 5A medium was used for cell line SK-OV-3; the media described below were the same as here), and centrifuged at about 200 xg for 5 minutes; d) the cell pellet was re-suspended in a medium and distributed into a 75 cm^2 culture flask; e) the resulting culture was incubated in a 37° C., 5% CO2 incubator. […]

NCI-N87 = experiment: In vitro cytotoxicity test (CellTiter Glo, 96 h); type: cell-based; conditions: NCI-N87, HER2-positive gastric cancer; ADC DAR about 4
Experimental: as §1
(§2) a) Vial was gently shaken in a 37° C. water bath to be thawed; b) after all the contents had been thawed, the vial was taken out from the water bath, and disinfected by immersion in or spraying with 70% ethanol; c) the contents of the vial was transferred into a centrifuge tube containing 9 mL of complete medium (DMEM medium was used for cell lines BT-474 and MCF-7; RPMI1640 medium was used for cell lines NCI-N87, HCC1954 and MDA-MB-468; and Mccoy's 5A medium was used for cell line SK-OV-3; the media described below were the same as here), and centrifuged at about 200 xg for 5 minutes; d) the cell pellet was re-suspended in a medium and distributed into a 75 cm^2 culture flask; e) the resulting culture was incubated in a 37° C., 5% CO2 incubator.
(§3) a) The cells were passaged three times a week at a ratio of 1:4 in a medium containing 10% FBS (heat inactivated) and 1% penicillin/streptomycin solution; b) for the passaged cells, the adherent cells were firstly washed with 0.05% trypsin/EDTA solution (3 mL), then trypsin/EDTA (3 mL) was added and vortexed to coat the cells evenly. The resulting culture was incubated at 37° C. until the cells were detached (observed with microscope to verify that the cells were detached). An equal volume of cell culture medium was added to inactivate trypsin, the detached cells were collected, and centrifuged at 200×g for 5 minutes and then re-suspended in fresh culture medium.

MCF-7 = experiment: In vitro cytotoxicity test (CellTiter Glo, 96 h); type: cell-based; conditions: MCF-7, HER2-weakly positive breast cancer; ADC DAR about 4
Experimental: as §1, §2, §3

HCC1954 = experiment: In vitro cytotoxicity test (CellTiter Glo, 96 h); type: cell-based; conditions: HCC1954, HER2-positive breast cancer; ADC DAR about 4
Experimental: as §1, §2, §3

SK-OV-3 = experiment: In vitro cytotoxicity test (CellTiter Glo, 96 h); type: cell-based; conditions: Sk-OV-3, HER2-positive ovarian cancer; ADC DAR about 4
Experimental: as §1, §2, §3

MDA-MB-468 = experiment: In vitro cytotoxicity test (CellTiter Glo, 96 h); type: cell-based; conditions: MDA-MB-468, HER2-negative breast cancer; ADC DAR about 4
Experimental: as §1, §2, §3

Row | Compound | Remaining amount [1] [%] | other results
1 | COC(=O)CC(SC[C@H](NC(C)=O)C(=O)NCc1ccccc1)C(=O)NCCCCCC(=O)Nc1ccccc1 (stereo partly drawn) [Conjugate-1] | 96 | 
2 | COC(=O)CC(SCc1ccccc1)C(=O)NCCCCCC(=O)Nc1ccccc1 (stereo not drawn) [Conjugate-3] | 93 | 
3 | CC[C@H](C)[C@@H]([C@@H](CC(=O)N1CCC[C@H]1[C@H](OC)[C@@H](C)C(=O)N[C@H](C)[C@@H](O)c1ccccc1)OC)N(C)C(=O)[C@@H](NC(=O)[C@@H](NC)C(C)C)C(C)C [MMAE, Monomethyl-auristatin E] (H-[NMeV]V[Dil][Dolaproine]-X1) |  | IC50 (BT-474): 0.299 nM; IC50 (NCI-N87): 0.161 nM; IC50 (MCF-7): 0.223 nM; IC50 (HCC1954): 0.116 nM; IC50 (SK-OV-3): 0.644 nM; IC50 (MDA-MB-468): 0.0669 nM
4 | O=C(CCCCCN1C(=O)CC(SCc2ccccc2)C1=O)Nc1ccccc1 (stereo not drawn) [Conjugate-3′] | 49 | 

More lines, main results first:

Row | Remaining amount [1] [%] | Compound | other results
5 | 53 | CC(=O)N[C@@H](CSC1CC(=O)N(CCCCCC(=O)Nc2ccccc2)C1=O)C(=O)NCc1ccccc1 (stereo partly drawn) [Conjugate-1′] | 
6 | 61 | O=C(CCCCCN1C(=O)CC(SCCO)C1=O)Nc1ccccc1 (stereo not drawn) [Conjugate-2′] | 
7 | 98 | COC(=O)CC(SCCO)C(=O)NCCCCCC(=O)Nc1ccccc1 (stereo not drawn) [Conjugate-2] | 
